Experimental data reported in ChEMBL document CHEMBL1201862, “PubChem BioAssay data set” (2004).
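In this assay, cells in 96-well plates receive the compound at five concentrations for 48 hours. Endpoints are linearly interpolated between the surrounding concentrations. At the GI50, growth is halved.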 Active and inactive are the calls of the source. Cut-off read from the data, not from the text of the source: active = GI50 up to about 1.1 µM and inactive = higher.

Columns and labels:
Experiment in all cases: DTP human tumour cell line panel, 48 h
[1] = test system: M14
[2] = test system: SK-MEL-2
[3] = test system: COLO 205
[4] = test system: DU-145
[5] = test system: SN12C
[6] = test system: SF-268
[7] = test system: MDA-MB-435
[8] = test system: K562
[9] = test system: SK-OV-3
[10] = test system: MOLT-4
[11] = test system: 786-0
[12] = test system: BT-549
[13] = test system: UO-31
[14] = test system: SNB-19
[15] = test system: TK-10
[16] = test system: NCI-H226
[17] = test system: RXF 393
[18] = test system: HT-29
[19] = test system: CAKI-1
[20] = test system: SNB-75

Measured: GI50

CC(C)(C)OC/C=C1\C(=O)O[C@H]2C[C@@H](O[Si](C)(C)C(C)(C)C)C[C@@H]12
inactive: [1] 61.8 µM | [2] > 100 µM | [3] > 100 µM | [4] > 100 µM | [5] > 100 µM | [6] > 100 µM | [7] 96.2 µM | [8] 26.1 µM | [9] > 100 µM | [10] 25.1 µM | [11] > 100 µM | [12] > 100 µM | [13] 53.8 µM | [14] > 100 µM | [15] > 100 µM | [16] > 100 µM | [17] 32.2 µM | [18] 73.6 µM | [19] > 100 µM | [20] 63.7 µM
